Test results taken from publication PMC3463587, “A Series of Beta-Carboline Derivatives Inhibit the Kinase Activity of PLKs” (PLoS ONE, 2012).

How the values were obtained:
MRC5 cells [1] = assay: FACS cell cycle analysis (PI), MRC5; assay type: cell-based, Human; details: 48 hr
Protocol: It is well documented that PLK1 is involved in multiple steps in mitosis, such as centrosome maturation and establishment of bipolar spindle. […] Therefore, the down-regulation of PLK1 would change the distribution of cells in different cell cycle stages. To test this possibility, fluorescence-activated cell sorter (FACS) analysis was used to analyze the DNA content of HeLa cells treated with the identified PLK1 inhibitors, DH281, DH285, and DH287. HeLa cells were first incubated in the absence and presence of these compounds at different concentrations (0, 0.12, 0.48 and 1.92 µM) for 48 hr. […] Treatment with a lower concentration of the compounds (0.12 and 0.48 µM) also led to an obvious increase of the cell population in G2/M phase (Figure 4A, Table 3). Moreover, the proportion of HeLa cells in G2/M phase increased over time after incubation in the presence of 0.8 µM of DH281, DH285 and DH287 (Figure 4B, Table 4). […] We also determined the cell cycle distribution of the non-cancer MRC5 cells after treatment with DH281 at different concentrations. […] It is also possible that inhibition of the kinase activity of the whole PLK family by beta-carboline compounds results in the defect in cell cycle progression.
Tumor cells were exposed to vehicle (0.1% DMSO) or compounds at 0, 0.12, 0.48, and 1.92 µM for 48 hr or 0.8 µM for 24, 48, and 72 hr; MRC5 cells were exposed to compounds at 0, 0.12, 0.48, and 1.92 µM for 48 hr. The floated and attached cells were treated by trypsinization and washed with cold PBS. The cells were then fixed with 70% (v/v) ethanol at 4°C overnight. The fixed cells were washed twice with PBS and incubated with 50 µg/mL RNase A (Sigma, USA) and 50 µg/mL propidium iodide (PI) (Sigma, USA) at 37°C for 30 min.

PC3 cells = assay: MTT cell proliferation assay, PC3; assay type: cell-based; details: Homo sapiens, PC-3, 48 hr
From the text: BI2536 was purchased from Selleck (Selleck, USA).

CDK2/cyclinE(h) = CDK2/cyclinE(h) (Homo sapiens, UniProt P24941); assay: In vitro kinase assay CDK2/cyclinE (33P-ATP); assay type: biochemical
Protocol: (§1) The inhibition of PLK1 kinase activity was assessed using the Cyclex PLK1 Assay/Inhibitor Screening Kit (MBL International Corporation, Japan). The kit includes anti-phospho-threonine polyclonal antibody (PPT-07) and peroxidase coupled anti-rabbit IgG antibody as a reporter in a 96-well ELSIA format. Compounds were used at the concentrations from 10^− ^3 to 10^2 µg/ml and the absorbance was determined at 450 nm. A similar protocol was used to determine the kinase inhibition for PLK2, PLK3, Aurora A and Aurora B. The kinase activity of CDK1/cyclinB and CDK2/cyclinE was analyzed in the presence of serially diluted inhibitors. For each reaction, 20 ng of recombinant kinase was used and […] casein from bovine milk (Sigma) was added as the kinase substrate. The kinase reaction buffer contains 8 mM MOPS pH7.0, 0.2 mM EDTA, 0.1 mg/ml histone H1, 10 mM and MgAcetace and [γ^− ^33P-ATP] (500 cpm/pmol). The reaction was initiated by adding the MgATP mix. After incubation for 40 minutes at room temperature, the reaction was stopped by the addition of 3% phosphoric acid solution. We spotted 10 µl of the reaction mixture onto a P30 filtermat and washed three times for 5 min with 75 mM phosphoric acid and once with methanol prior to drying and scintillation counting.

MRC5 cells [2] = details: read-out: IC50 MRC5; MTT, 48 hr, non-cancer cells
Protocol: All the beta-carboline derivatives were provided by Xinjiang Huashidan Pharmaceutical Co. Ltd. The culture media and fetal bovine serum (FBS) were purchased from Hyclone (Hyclone Laboratories Inc., USA). […] All the cell lines were obtained from the Cell Culture Centre, Institute of Basic Medical Science, Chinese Academy of Medical Science and incubated at 37°C supplied with 5% CO2. HeLa cells were grown in standard DMEM with 10% FBS.
MRC5, HeLa, HepG2, PC3 and MG63 cells were seeded at 3000–6000 cells/well (200 µl/well) in a 96-well plate and incubated overnight. Then different concentrations of compounds were added into the cell cultures with a final concentration of 0.1% DMSO and incubated for an additional 48 hr. After that, 22 µl MTT solution (5 mg/ml) was added into each well and incubated at 37°C for 4 hr.

Aurora-B = Aurora-B (Homo sapiens, UniProt Q96GD4); assay: In vitro kinase assay Aurora B; assay type: biochemical
Chain of Aurora-B (Q96GD4 whole entry): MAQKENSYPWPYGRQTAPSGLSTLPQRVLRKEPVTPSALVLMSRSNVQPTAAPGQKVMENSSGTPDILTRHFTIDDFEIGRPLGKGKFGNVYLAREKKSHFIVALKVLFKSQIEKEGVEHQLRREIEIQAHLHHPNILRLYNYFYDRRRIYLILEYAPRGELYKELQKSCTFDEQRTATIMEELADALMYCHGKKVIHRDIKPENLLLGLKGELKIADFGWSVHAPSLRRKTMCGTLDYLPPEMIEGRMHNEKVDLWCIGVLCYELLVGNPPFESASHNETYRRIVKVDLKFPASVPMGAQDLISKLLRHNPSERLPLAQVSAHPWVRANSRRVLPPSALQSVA
Protocol: as §1

Aurora-A = molecular target: T1, Aurora-A (Homo sapiens, UniProt O14965); assay: In vitro kinase assay Aurora A; assay type: biochemical
T1 sequence (O14965 1-403): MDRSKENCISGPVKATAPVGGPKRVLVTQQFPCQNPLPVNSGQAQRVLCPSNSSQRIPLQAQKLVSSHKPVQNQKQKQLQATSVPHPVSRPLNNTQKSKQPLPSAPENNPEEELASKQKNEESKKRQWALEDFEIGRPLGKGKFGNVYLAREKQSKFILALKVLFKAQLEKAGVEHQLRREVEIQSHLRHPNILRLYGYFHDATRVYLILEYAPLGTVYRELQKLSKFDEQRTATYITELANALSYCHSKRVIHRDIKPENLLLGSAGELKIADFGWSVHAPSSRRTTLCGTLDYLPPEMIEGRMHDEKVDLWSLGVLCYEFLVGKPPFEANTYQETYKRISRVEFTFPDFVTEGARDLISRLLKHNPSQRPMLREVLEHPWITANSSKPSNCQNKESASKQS
Protocol: as §1

SMILES | cells in G1 (MRC5 cells [1]; MRC5, 0.12 µM) [%] | cells in G2 (G2/M) (MRC5 cells [1]; MRC5, 0.12 µM) [%] | cells in S (MRC5 cells [1]; MRC5, 0.12 µM) [%] | cells in G1 (MRC5 cells [1]; MRC5, 0.48 µM) [%] | cells in G2 (G2/M) (MRC5 cells [1]; MRC5, 0.48 µM) [%] | cells in S (MRC5 cells [1]; MRC5, 0.48 µM) | cells in G1 (MRC5 cells [1]; MRC5, 1.92 µM) [%] | cells in S (MRC5 cells [1]; MRC5, 1.92 µM) [%] | IC50 (PC3 cells) [µM] | IC50 (CDK2/cyclinE(h)) [µM] | IC50 (MRC5 cells [2]) [µM] | IC50 (Aurora-B) [µM] | IC50 (Aurora-A) [µM]
Cc1c2c(cc[n+]1Cc1ccccc1)c1ccc(OCc3ccc(F)cc3)cc1n2CCCc1ccccc1 [DH281] | 75.3 | 15.5 | 9.18 | 68.2 | 14.6 | 17.3. % | 59.3 | 25.6 | 0.94 ± 0.23 | > 100 | – | – | –
Cc1c2c(cc[n+]1Cc1ccccc1)c1ccc(OCc3ccccc3)cc1n2Cc1ccccc1 [DH287] | – | – | – | – | – | – | – | – | 2.86 ± 0.19 | > 100 | 3.06 ± 0.69 | 24.7 | 22.6
